Source: US4402942A, “Oxytocin derivatives” (Ferring AB, priority 1980, dated 1983)

What was measured:
isolated rat uterus = experiment: Uterotonic potency on isolated rat uterus with oxytocin as standard; type: cell-based; conditions: rat in vitro
Protocol: The known compounds 2-O-methyltyrosine-oxytocin and 2-O-ethyltyrosine-oxytocin and a representative compound according to the invention, viz. 1-deamino-(2-O-ethyltyrosine)-oxytocin, was examined with regard to uterotonic potency on isolated rat uterus with use of oxytocin as standard. The antagonistic properties of the compounds were also evaluated with the aid of said preparation, but also in vivo with use of oxytocin as agonist. Moreover, the inhibition of oxytocin effect on isolated human myometrium was examined.
Sprague Dawley rats (body weight approximately 250 g) in natural estrous were selected by vaginal smears. […] Contractions were recorded isometrically at a resting tension of 1.5 g using Grass force transducers (Ft. 03). Antagonistic potency of the analogues was calculated as pA2 values (Rudinger, J. & Krejci, I. Experientia 18, (1962), 585-588). pA2 is a measure of the inhibitory property of the peptide and was defined by Schild (Schild, H. O., British Journal of Pharmacology, 2, (1947), 189-206) as the negative logarithm of the molar concentration of an antagonist which reduces the effect of a dose of agonist to that of half the dose.

[1] = test system: rat uterus preparations stimulated with oxytocin; experiment: Antagonistic activity (pA2) on rat uterus preparations in vitro stimulated with oxytocin; type: cell-based; conditions: oxytocin as agonist
Protocol: Sprague Dawley rats (body weight approximately 250 g) in natural estrous were selected by vaginal smears. An approximately 20 mm long segment was cut from the middle of a uterine horn and mounted in an organ bath containing 10 ml of a modified Locke's solution of the following composition (mM:NaCl 153, KCl 5.63, CaCl2 0.541, NaHCO3 5.95 and glucose 2.78). The solution was gassed with 5% CO2 in oxygen at 30° C. The uterine contractions were allowed to stabilize for 30 minutes. Contractions were recorded isometrically at a resting tension of 1.5 g using Grass force transducers (Ft. 03). Antagonistic potency of the analogues was calculated as pA2 values (Rudinger, J. & Krejci, I. Experientia 18, (1962), 585-588). pA2 is a measure of the inhibitory property of the peptide and was defined by Schild (Schild, H. O., British Journal of Pharmacology, 2, (1947), 189-206) as the negative logarithm of the molar concentration of an antagonist which reduces the effect of a dose of agonist to that of half the dose.

[2] = test system: isolated human myometrium (pregnant), oxytocin induced contractions; experiment: Inhibition of oxytocin induced contractions of isolated uterine tissue from pregnant women; type: cell-based; conditions: in vitro
Protocol: From 17 patients undergoing caesarean section (week 37-40) a transverse segment of uterine tissue was excised from the isthmic part of the uterus. Tissue pieces were also excised from the ventral side of the uterus of 21 non-pregnant women in fertile age undergoing hysterectomy. The tissue pieces were immediately placed in Krebs-Ringer solution (mM: NaCl 118, KCl 4.6, CaCl2 2.5, MgSO4 1.15, NaHCO3 24.9, KH2 PO4 1.15 and glucose 5.5) at 0° C. and used within two hours after the operation. Segments pieces 25×3×3 mm large were mounted in an organ bath containing 10 ml Krebs-Ringer solution at 37° C. and gassed with 5% CO2 in oxygen. After an adaptation period of 30 minutes contractions were isometrically recorded at a resting tension of 1.25 g. In experiments involving pregnant women use was made of oxytocin (0.013-1.3 μg/ml) as an agonist. Lysinevasopressin (0.07-1.3 μg/ml) was used as an agonist where non-pregnant tissue was tested. A suitable dose of agonist was selected, which gave an effect corresponding to approximately 40% of the maximum effect. The antagonist was used in a concentration of 0.33-1.32 μg/ml. […] The inhibitory effect of the antagonist was measured by planimetry, for 15 minutes after the addition of the peptide, of the total surface of the curve recorded. Inhibition was expressed as a percentage of the effect obtained with the agonist alone.

[3] = test system: uterine contractions caused by infusion of oxytocin; experiment: Rat in vivo uterine contractions under oxytocin infusion; conditions: for complete block of the uterine contraction pattern (oxytocin initiated and spontaneous): dose of 2 μg; for inhibition of the increase of strength of uterine contractions caused by oxytocin infusion: oxytocin 0.05 μg/min/100 g body weight
Protocol: Sprague Dawley rats (250 g) in natural estrous were anaesthetized with Inactin (0.5 mg/100 g body weight i.p.). Myometrial activity was recorded by means of a catheter fixed in the uterine cavity and filled with modified Locke's solution. The catheter was connected to a Statham P23d transducer and contractions were recorded on a Grass polygraph (model 7D). Oxytocin was infused intravenously (0.05 μg/min/100 g body weight). When a regular contraction pattern had been obtained the antagonist (0.8-8.0 μg/100 g body weight) was administered intravenously in a volume of 0.2 ml. The recorded curve was integrated over 10 minute intervals immediately before and after injection of the antagonist.

[4] = test system: oxytocin induced uterine contractions; conditions: literature, studies on rats; cited from earlier work
[5] = Blood pressure after intravenous dose; type: in vivo; conditions: 30 μg intravenously
[6] = test system: spontaneous uterine function; conditions: Swedish patent 7713/70; cited from earlier work

Molecule | uterotonic potency (isolated rat uterus) | pA2 (average ± average error) [1] | inhibition of oxytocin induced contractions [2] | complete block of the uterine contraction pattern (oxytocin initiated and spontaneous) [3] | inhibition of the increase of strength of uterine contractions caused by oxytocin infusion [3] | effect on oxytocin induced uterine contractions [4] | effect on the blood pressure [5] | effect on the spontaneous uterine function [6]
2-O-ethyltyrosine-oxytocin | 1-2 IU/mg | 7.13 ± 0.09 | a significant inhibition was obtained, which was however considerably lower than with use of the compound according to the invention | lack this ability | dose dependent reversible inhibition | antagonistic effect | – | –
2-O-methyltyrosine-oxytocin | 1-2 IU/mg | 6.68 ± 0.12 | – | lack this ability | dose dependent reversible inhibition | antagonistic effect | – | –
CCOc1ccc(C[C@@H]2NC(=O)CCSSC[C@@H](C(=O)N3CCC[C@H]3C(=O)N[C@@H](CC(C)C)C(=O)NCC(N)=O)NC(=O)[C@H](CC(N)=O)NC(=O)[C@H](CCC(N)=O)NC(=O)[C@H]([C@@H](C)CC)NC2=O)cc1 [1-deamino-2-O-ethyltyrosine-oxytocin] | – | 7.19 ± 0.10 | – | – | – | – | no effect at all on the blood pressure | –
N^α -acetyl-2-O-methyltyrosine-oxytocin | – | – | – | – | – | antagonistic effect | – | no effect on the spontaneous uterine function
[1-deaminopenicillamine,2-O-methyltyrosine]oxytocin | – | – | – | – | – | antagonistic effect | – | –
